According to patent US20160008298A1, “XANTHOHUMOL-BASED COMPOUNDS AND COMPOSITIONS THEREOF, AND METHODS OF MAKING AND USING THE SAME” (Oregon State University, priority 2014, published 2016):

Tests used:
plasma membrane = details: cited from earlier work
[1] = test system: mitochondrial transmembrane potential in C2C12 cells; test: JC-1 assay of mitochondrial transmembrane potential; type: cell-based, mouse; details: 2.5 μM
Description: Cells were plated at a density of 80,000 cells per well in black 96-well plates and incubated for 24 hours at 37° C. (5% CO2). They were then treated with fresh solutions of various concentrations of XN, DXN or TXN in growth medium. The final concentrations of XN, DXN, TXN were 1, 2, 5, 8, 25, 50 μM, all in quadruplicate wells, in the 96-well plates. After one hour of exposure to the compounds at 37° C. (5% CO2), the cells were treated with 10 μL of a JC-1 staining solution (freshly prepared by diluting 11 fold 100 μL of the JC-1 agent furnished from the assay kit). After 15 to 30 minutes of incubation (37° C., 5% CO2), the cells were washed three times with the Cell-Based Assay Buffer (prepared by dissolving three buffer tablets of the kit in 300 mL of MilliQ water). The plates were then analyzed by a fluorescent plate reader (SpectraMax Gemini XS) at 560-595 nm and 485-535 nm.
JC-1 can selectively enter into mitochondria and reversibly change color from green to red as the membrane potential increases. In healthy cells with high mitochondrial transmembrane potential, JC-1 spontaneously forms complexes known as J-aggregates with intense red fluorescence with excitation and emission at 560 nm and 595 nm, respectively. […] The ratio of fluorescence intensity of J-aggregates to fluorescence intensity of J-monomers can be used as an indicator of cell heath or mitochondrial state. […] A decrease in the values of the ratios compared to the control is indicative of an alteration in the potential across the mitochondrial membrane.

mice = details: mouse; cited from earlier work
[2] = test system: C2C12 skeletal muscle cells; test: Seahorse OCR and ECAR measurements after oligomycin; type: cell-based, mouse; details: oligomycin 1 μM; for ECAR plateau after injection of oligomycin: % pre oligomycin values
Description: OCR and ECAR measurements were performed with a Seahorse XF 24 Analyzer (Seahorse Bioscience). Cells were plated 24 hours prior to measurements at a density of 40,000 cells per well within growth medium in a 24-well plate. The cells were then allowed to adhere for 24 hours (37° C., 5% CO2). Prior to the assay, the cells were washed with freshly prepared running media consisting of Seahorse XF Assay medium (Seahorse Bioscience, North America, USA), 10 mM glucose and 1 mM sodium pyruvate. The pH of the medium was adjusted to 7.4 with 1 M NaOH. The cells were then equilibrated for one hour at 37° C. without CO2. The compounds were injected during the assay; OCR and ECAR were measured at 9 minutes measurement intervals. The solutions of oligomycin, FCCP, XN, DXN and TXN were freshly prepared in running medium. The final concentrations in the wells were: 1 μM for oligomycin, 5 μM for XN, DXN and TXN and 2, 5, 8, 25 μM for the dose response experiments with DXN. Ethanol was added to the control wells not to exceed a final concentration of 0.1%. All the compounds were tested in quadruplicate on the 24-well plate. XN is highly non-polar and FBS can be used to dissolve XN. Thus, XN, DXN and TXN were first dissolved in ethanol and the resulting solutions were diluted 100-fold in running medium containing 1% of FBS. After a further 10-fold dilution into the media in wells, only 0.1% of FBS was present during OCR measurements. […] The concentration of oligomycin and the cell density used were selected based on preliminary experiments.
Seahorse data were analyzed in SAS 9.2 (SAS Institute Inc., Cary, N.C.). To show a consistent baseline, OCR values (in pmol/min/mg protein) and ECAR values (in mpH/min/mg protein) for each value were divided prior to statistical analysis by the average of the four pre oligomycin treatment values (0, 8, 17, and 25 minutes) for the corresponding well and are shown as % pre oligomycin values. The original scale for OCR and for ECAR values was utilized for the OCR/ECAR ratio (in pMol/mpH). To account for repeated measures within wells over time, a repeated-measures-in-time design using ANOVA procedures in PROC MIXED was used. Fixed effects in the model were treatment (control, 2 μM DXN, 5 μM XN, 5 μM DXN, and 5 μM TXN for the compound study and control, 2, 5, 8, and 25 μM DXN for the DXN dosage study), time (0, 8, 17, 25, 34, 43, 52, 60, 69, 78, 86, and 95 minutes), and their interaction. The random effect was the experiment (5 experiments for the compound study and 3 experiments for the DXN dosage study). To account for repeated measures within wells over time, a first order homogeneous variance-covariance matrix [AR(1)] was fitted for each well. Using the ESTIMATE statement, a priori contrasts were constructed by comparing the changes in compound treated cells from the last two time points prior to compound treatment (average 52 and 60 minutes) to the changes in control cells during the same time period. This was done for each compound and dosage for 69, 78, 86, and 95 minutes separately and for all four time points combined. […] A P-value of 0.05 was considered statistically significant and is shown as star in the graphs (FIG. 5).

N#CC(C#N)=NNc1ccc(OC(F)(F)F)cc1 [FCCP, carbonyl cyanide-4-(trifluoromethoxy)phenylhydrazone, reference compound]
concentration from which the plasma membrane is depolarized (plasma membrane): above 2.5 μM
ratio value of aggregates to monomers (JC-1, percent of control) [1]: 33.0±5.6%

O=[N+]([O-])c1ccc(O)c([N+](=O)[O-])c1 [dinitrophenol, reference compound]
LD50 (mice): 45 mg/kg

CC[C@H]1/C=C/C=C/C[C@@H](C)[C@H](O)[C@@](C)(O)C(=O)[C@@H](C)[C@H](O)[C@@H](C)C(=O)[C@@H](C)[C@H](O)[C@@H](C)/C=C/C(=O)O[C@@H]2[C@H](C)[C@H](CC1)O[C@]1(CC[C@H](C)[C@H](C[C@@H](C)O)O1)[C@H]2C [oligomycin, reference compound]
residual OCR after oligomycin ([2]; DXN dosage experiment): 51.4±6.3%
ECAR plateau after injection of oligomycin ([2]; DXN dosage study): 151.1±3.4%
ECAR plateau after injection of oligomycin ([2]; compound study): 160.1±5.1%
